{
  "source": "patent US8178506B2",
  "about": "“Oligomeric compounds and compositions for use in modulation of small non-coding RNAs” (Regulus Therapeutics Inc., priority 2003, dated 2012)",
  "key": {"IGFBP-1": {"system": "IGFBP-1", "test": "IGFBP-1 mRNA expression in HepG2 cells", "type": "cell-based, human"}, "HeLa cells": {"system": "HeLa cells", "test": "Cell cycle assay in HeLa cells", "type": "cell-based, human", "conditions": "HeLa cells; for % cells in cell cycle phase: G1 / % cells in cell cycle phase: G2/M / % cells in cell cycle phase: S / % cells in cell cycle phase: aneuploid / % cells in cell cycle phase: subG1: 48 hours after treatment, relative to untreated control (UTC=100)"}, "[1]": {"conditions": "Experiment 1, basal (no insulin), HepG2, 100 nM oligomeric compound"}, "[2]": {"conditions": "Experiment 2, 1 nM insulin treated, HepG2, 100 nM oligomeric compound"}, "[3]": {"conditions": "150 nM oligomeric compound, 24 hours, relative to untreated control (UTC = 100)"}, "[4]": {"conditions": "150 nM, 48 hours, relative to untreated control"}},
  "note": "Where “and” joins values, the source holds several entries; their conditions need not be identical. Equal entries are not always repeated. In the oligonucleotide strings, read from the 5' end, every base follows the letter of its sugar. An asterisk marks phosphorothioate; unmarked linkages are phosphodiester. Other units and linkages are bracketed, terminal groups are in braces. A string of capitals states the bases alone. e = 2'-O-(2-methoxyethyl) (MOE); [5mC] = 5-methylcytosine; d = 2'-deoxy (DNA)",
  "data": [
    {"substance": "327934 (antisense eG*eG*eT*eA*e[5mC]*eA*eA*eT*e[5mC]*eA*eA*e[5mC]*eG*eG*eT*e[5mC]*eG*eA*eT*eG*eG*eT) [compound 327934]", "values": [
      {"measurement": "IGFBP-1 (% UTC)", "setting": "IGFBP-1; [1]", "value": 231, "unit": "% UTC"},
      {"measurement": "IGFBP-1 (% UTC)", "setting": "IGFBP-1; [2]", "value": 244, "unit": "% UTC"},
      {"measurement": "% cells aneuploid", "setting": "HeLa cells; [3]", "value": "55% and 77%"},
      {"measurement": "% cells in cell cycle phase G1", "setting": "HeLa cells; [3]", "value": "87% and 118%"},
      {"measurement": "% cells in cell cycle phase G2/M", "setting": "HeLa cells; [3]", "value": "160% and 137%"},
      {"measurement": "% cells in cell cycle phase S", "setting": "HeLa cells; [3]", "value": "85% and 66%"},
      {"measurement": "% cells in cell cycle phase subG1", "setting": "HeLa cells; [3]", "value": "278% and 204%"},
      {"measurement": "% cells in cell cycle phase: G1", "setting": "HeLa cells; 150 nM oligomeric compound", "value": "62% and 66%"},
      {"measurement": "% cells in cell cycle phase: G2/M", "setting": "HeLa cells; 150 nM oligomeric compound", "value": "152% and 155%"},
      {"measurement": "% cells in cell cycle phase: S", "setting": "HeLa cells; 150 nM oligomeric compound", "value": "156% and 148%"},
      {"measurement": "% cells in cell cycle phase: aneuploid", "setting": "HeLa cells; 150 nM oligomeric compound", "value": "92% and 117%"}
    ]},
    {"substance": "328115 (antisense eA*eG*eA*eA*eG*eG*eT*eG*eG*eG*eG*eA*eG*e[5mC]*eA*eG*e[5mC]*eG*eT*e[5mC]*eA) [compound 328115]", "values": [
      {"measurement": "IGFBP1 mRNA expression", "setting": "IGFBP-1; Experiment 2, insulin treated: HepG2 cells transfected with oligomeric compound, 1 nM insulin for four hours, UTC + 1 nM insulin = 100", "value": 120},
      {"measurement": "% cells aneuploid", "setting": "HeLa cells; [3]", "value": 59, "unit": "%"},
      {"measurement": "% cells in cell cycle phase G1", "setting": "HeLa cells; [3]", "value": 90, "unit": "%"},
      {"measurement": "% cells in cell cycle phase G2/M", "setting": "HeLa cells; [3]", "value": 147, "unit": "%"},
      {"measurement": "% cells in cell cycle phase S", "setting": "HeLa cells; [3]", "value": 87, "unit": "%"},
      {"measurement": "% cells in cell cycle phase subG1", "setting": "HeLa cells; [3]", "value": 177, "unit": "%"},
      {"measurement": "% cells in cell cycle phase: G1", "setting": "HeLa cells; 150 nM oligomeric compound", "value": 92, "unit": "%"},
      {"measurement": "% cells in cell cycle phase: G2/M", "setting": "HeLa cells; 150 nM oligomeric compound", "value": 107, "unit": "%"},
      {"measurement": "% cells in cell cycle phase: S", "setting": "HeLa cells; 150 nM oligomeric compound", "value": 114, "unit": "%"},
      {"measurement": "% cells in cell cycle phase: aneuploid", "setting": "HeLa cells; 150 nM oligomeric compound", "value": 86, "unit": "%"},
      {"measurement": "% cells in cell cycle phase: subG1", "setting": "HeLa cells; 150 nM oligomeric compound", "value": 195, "unit": "%"}
    ]},
    {"substance": "328759 (antisense eG*eA*eG*eG*eG*dA*dT*dT*dG*dT*dA*dT*dG*dA*dA*e[5mC]*eA*eT*e[5mC]*eT) [compound 328759]", "values": [
      {"measurement": "IGFBP-1 (% UTC)", "setting": "IGFBP-1; Experiment 3, basal (no insulin), HepG2 cells, 48 hours post-transfection", "value": 356, "unit": "% UTC"},
      {"measurement": "IGFBP-1 (% UTC)", "setting": "IGFBP-1; Experiment 4, insulin-sensitization: HepG2 cells treated with 1 nM insulin for four hours, 48 h post-transfection, mRNA by real-time PCR", "value": 212, "unit": "% UTC"},
      {"measurement": "% cells aneuploid", "setting": "HeLa cells; [3]", "value": 184, "unit": "%"},
      {"measurement": "% cells in cell cycle phase G1", "setting": "HeLa cells; [3]", "value": 88, "unit": "%"},
      {"measurement": "% cells in cell cycle phase G2/M", "setting": "HeLa cells; [3]", "value": 168, "unit": "%"},
      {"measurement": "% cells in cell cycle phase S", "setting": "HeLa cells; [3]", "value": 78, "unit": "%"},
      {"measurement": "% cells in cell cycle phase subG1", "setting": "HeLa cells; [3]", "value": 239, "unit": "%"},
      {"measurement": "% cells in cell cycle phase: G1", "setting": "HeLa cells; 150 nM oligomeric compound", "value": 50, "unit": "%"},
      {"measurement": "% cells in cell cycle phase: G2/M", "setting": "HeLa cells; 150 nM oligomeric compound", "value": 343, "unit": "%"},
      {"measurement": "% cells in cell cycle phase: S", "setting": "HeLa cells; 150 nM oligomeric compound", "value": 31, "unit": "%"},
      {"measurement": "% cells in cell cycle phase: aneuploid", "setting": "HeLa cells; 150 nM oligomeric compound", "value": 148, "unit": "%"},
      {"measurement": "% cells in cell cycle phase: subG1", "setting": "HeLa cells; 150 nM oligomeric compound", "value": 1744, "unit": "%"},
      {"measurement": "% cells in cell cycle phase G1", "setting": "HeLa cells; [4]", "value": 40, "unit": "%"},
      {"measurement": "% cells in cell cycle phase G2/M", "setting": "HeLa cells; [4]", "value": 203, "unit": "%"},
      {"measurement": "% cells in cell cycle phase S", "setting": "HeLa cells; [4]", "value": 82, "unit": "%"},
      {"measurement": "% cells in cell cycle phase aneuploid", "setting": "HeLa cells; [4]", "value": 223, "unit": "%"},
      {"measurement": "% cells in cell cycle phase subG1", "setting": "HeLa cells; [4]", "value": 797, "unit": "%"}
    ]},
    {"substance": "340927 (antisense eT*eG*eA*eG*e[5mC]*dT*dA*d[5mC]*dA*dG*dT*dG*d[5mC]*dT*dT*e[5mC]*eA*eT*e[5mC]*eT*e[5mC]*eA) [compound 340927]", "values": [
      {"measurement": "IGFBP-1 (% UTC)", "setting": "IGFBP-1; [1]", "value": 201, "unit": "% UTC"},
      {"measurement": "IGFBP-1 (% UTC)", "setting": "IGFBP-1; [2]", "value": 285, "unit": "% UTC"},
      {"measurement": "% cells aneuploid", "setting": "HeLa cells; [3]", "value": "88% and 87%"},
      {"measurement": "% cells in cell cycle phase G1", "setting": "HeLa cells; [3]", "value": "121% and 128%"},
      {"measurement": "% cells in cell cycle phase G2/M", "setting": "HeLa cells; [3]", "value": "111% and 106%"},
      {"measurement": "% cells in cell cycle phase S", "setting": "HeLa cells; [3]", "value": "75% and 71%"},
      {"measurement": "% cells in cell cycle phase subG1", "setting": "HeLa cells; [3]", "value": "118% and 131%"},
      {"measurement": "% cells in cell cycle phase: G1", "setting": "HeLa cells; 150 nM oligomeric compound", "value": 91, "unit": "%"},
      {"measurement": "% cells in cell cycle phase: G2/M", "setting": "HeLa cells; 150 nM oligomeric compound", "value": "121% and 122%"},
      {"measurement": "% cells in cell cycle phase: S", "setting": "HeLa cells; 150 nM oligomeric compound", "value": 107, "unit": "%"},
      {"measurement": "% cells in cell cycle phase: aneuploid", "setting": "HeLa cells; 150 nM oligomeric compound", "value": "113% and 108%"},
      {"measurement": "% cells in cell cycle phase: subG1", "setting": "HeLa cells; 150 nM oligomeric compound", "value": "95% and 83%"}
    ]}
  ]
}
